Reference: patent US9174994B2, “Enhanced treatment regimens using mTor inhibitors” (INTELLIKINE LLC, priority 2011, dated 2015)

How the values were obtained:
[1] = Additional study: grade 3 or greater treatment-emergent adverse events; assay type: in vivo, human
[2] = test system: TORC1 (p4EBP1 and pS6) and TORC2 (pPRAS40); assay: Human skin immunohistochemistry assay (skin biopsies, Phase I trial); assay type: in vivo
Protocol: Skin tissue was fixed in 10% neutral-buffered formalin solution for 24 hours and then processed and embedded in paraffin block. Sections (4 μm) were cut and mounted onto microscopic slides. Sections were incubated with primary antibodies (p4EBP1, pS6, or pRAS40) overnight and developed using a chromogenic substrate.
(§1) Pharmacodynamic (PD) endpoints were evaluated in surrogate (peripheral blood cells [PBCs], skin) and tumor tissues for the phosphorylation of TORC1-dependent markers (4EBP1/S6), and TORC2-dependent markers (AKT/PRAS40). 50 patients were treated in 3 intermittent dosing regimens; 21 in 6 cohorts ranging 7-40 mg QW, 20 in 5 cohorts ranging 6-20 mg QDx3d QW, and 9 in 3 cohorts ranging 7-13 mg QDxSd QW. […] The MTD for intermittent dosing was not reached. All adverse events (AEs) reported were reversible. The most common (≧20%, n=35) AEs considered possibly related to compound A reported in all 3 dosing regimens included nausea (51%), hyperglycemia (37%), mucosal inflammation (29%), rash (23%), asthenia (23%), vomiting (26%), and diarrhea (20%). The majority of AEs considered possibly related to compound A in any regimen were Grade 1 or 2. The only reported Grade ≧3 AE (≧5%) possibly related to compound A in 3 regimens was lymphopenia (6%). Tables 4-9 show summaries of observed adverse events for various treatment regimens of the invention.

p4E-BP1 (T37/46) = assay: Human peripheral blood mono-nucleocyte biomarker assay (Phosflow, Phase I trial); assay type: in vivo; settings: all dosing regimens
Protocol: A BD Biosciences Phosflow assay was conducted using human peripheral blood cells. Whole blood was lysed and fixed using the provided BD Lyse/Fix buffer and permeabilized with BD Perm III buffer. Peripheral blood cells were isolated and stained using CD33 and CD20 as extracellular markers and p4E-BP1 (T37/46) as the intracellular biomarker. Cell type populations were identified as monocytes (CD33+), granulocytes (CD33 dim), lymphocytes (CD33−), B-cells (CD33−, CD20+) and T &NK cells (CD33−, CD20−) by FACS analysis. The median fluorescense intensity (MFI) of each cell type was analyzed along with the percentage of p4E-BP1 positive cells.
as §1, with “The majority of AEs considered possibly related to compound A in any regimen were Grade 1 or 2. The only reported Grade ≧3 AE (≧5%) possibly related to compound A in 3 regimens was lymphopenia (6%). Tables 4-9 show summaries of observed adverse events for various treatment regimens of the invention.” left out

CC(C)n1nc(-c2ccc3oc(N)nc3c2)c2c(N)ncnc21 [compound A]
Grade 3 or greater TEAE: Muscular weakness ([1]; QDx5d QW (N = 15)): 0 (0%)
Grade 3 or greater TEAE: Nausea ([1]; QDx5d QW (N = 15)): 1 (7%)
Grade 3 or greater TEAE: Neutropenia ([1]; QDx5d QW (N = 15)): 1 (7%)
Grade 3 or greater TEAE: Pruritus ([1]; QDx5d QW (N = 15)): 0 (0%)
Grade 3 or greater TEAE: Rash ([1]; QDx5d QW (N = 15)): 1 (7%)
Grade 3 or greater TEAE: Thrombocytopenia ([1]; QDx5d QW (N = 15)): 0 (0%)
Grade 3 or greater TEAE: Vomiting ([1]; QDx5d QW (N = 15)): 1 (7%)
Patients Reporting at least one Grade 3 or greater TEAE ([1]; QDx5d QW (N = 15)): 8 (53%)
Grade 3 or greater TEAE: Anaemia ([1]; QW Dosing (N = 22)): 2 (9%)
Grade 3 or greater TEAE: Aspartate aminotransferase increase ([1]; QW Dosing (N = 22)): 1 (5%)
Grade 3 or greater TEAE: Asthenia ([1]; QW Dosing (N = 22)): 1 (5%)
Grade 3 or greater TEAE: Blood creatinine increase ([1]; QW Dosing (N = 22)): 0 (0%)
Grade 3 or greater TEAE: Deep vein thrombosis ([1]; QW Dosing (N = 22)): 1 (5%)
Grade 3 or greater TEAE: Diarrhoea ([1]; QW Dosing (N = 22)): 1 (5%)
Grade 3 or greater TEAE: Disease progression ([1]; QW Dosing (N = 22)): 2 (9%)
Grade 3 or greater TEAE: Fatigue ([1]; QW Dosing (N = 22)): 1 (5%)
Grade 3 or greater TEAE: Gamma-glutamyltransferase increase ([1]; QW Dosing (N = 22)): 1 (5%)
Grade 3 or greater TEAE: Hyperglycaemia ([1]; QW Dosing (N = 22)): 0 (0%)
Grade 3 or greater TEAE: Hypokalaemia ([1]; QW Dosing (N = 22)): 1 (5%)
Grade 3 or greater TEAE: Hyponatraemia ([1]; QW Dosing (N = 22)): 0 (0%)
Grade 3 or greater TEAE: Hypophsphataemia ([1]; QW Dosing (N = 22)): 0 (0%)
Grade 3 or greater TEAE: Lymphopenia ([1]; QW Dosing (N = 22)): 1 (5%)
Grade 3 or greater TEAE: Mucosal Inflammation ([1]; QW Dosing (N = 22)): 0 (0%)
Grade 3 or greater TEAE: Muscular weakness ([1]; QW Dosing (N = 22)): 1 (5%)
Grade 3 or greater TEAE: Nausea ([1]; QW Dosing (N = 22)): 0 (0%)
Grade 3 or greater TEAE: Neutropenia ([1]; QW Dosing (N = 22)): 1 (5%)
Grade 3 or greater TEAE: Pruritus ([1]; QW Dosing (N = 22)): 0 (0%)
Grade 3 or greater TEAE: Rash ([1]; QW Dosing (N = 22)): 0 (0%)
Grade 3 or greater TEAE: Thrombocytopenia ([1]; QW Dosing (N = 22)): 0 (0%)
Grade 3 or greater TEAE: Vomiting ([1]; QW Dosing (N = 22)): 1 (5%)
Patients Reporting at least one Grade 3 or greater TEAE ([1]; QW Dosing (N = 22)): 10 (45%)
Grade 3 or greater TEAE: Anaemia ([1]; Total (N = 91)): 6 (7%)
Grade 3 or greater TEAE: Aspartate aminotransferase increase ([1]; Total (N = 91)): 2 (2%)
Grade 3 or greater TEAE: Asthenia ([1]; Total (N = 91)): 4 (4%)
Grade 3 or greater TEAE: Blood creatinine increase ([1]; Total (N = 91)): 2 (2%)
Grade 3 or greater TEAE: Deep vein thrombosis ([1]; Total (N = 91)): 2 (2%)
Grade 3 or greater TEAE: Diarrhoea ([1]; Total (N = 91)): 3 (3%)
Grade 3 or greater TEAE: Disease progression ([1]; Total (N = 91)): 2 (2%)
Grade 3 or greater TEAE: Fatigue ([1]; Total (N = 91)): 3 (3%)
Grade 3 or greater TEAE: Gamma-glutamyltransferase increase ([1]; Total (N = 91)): 3 (3%)
Grade 3 or greater TEAE: Hyperglycaemia ([1]; Total (N = 91)): 9 (10%)
Grade 3 or greater TEAE: Hypokalaemia ([1]; Total (N = 91)): 3 (3%)
Grade 3 or greater TEAE: Hyponatraemia ([1]; Total (N = 91)): 2 (2%)
Grade 3 or greater TEAE: Hypophsphataemia ([1]; Total (N = 91)): 5 (5%)
Grade 3 or greater TEAE: Lymphopenia ([1]; Total (N = 91)): 6 (7%)
Grade 3 or greater TEAE: Mucosal Inflammation ([1]; Total (N = 91)): 7 (8%)
Grade 3 or greater TEAE: Muscular weakness ([1]; Total (N = 91)): 2 (2%)
Grade 3 or greater TEAE: Nausea ([1]; Total (N = 91)): 2 (2%)
Grade 3 or greater TEAE: Neutropenia ([1]; Total (N = 91)): 2 (2%)
Grade 3 or greater TEAE: Pruritus ([1]; Total (N = 91)): 3 (3%)
Grade 3 or greater TEAE: Rash ([1]; Total (N = 91)): 9 (10%)
Grade 3 or greater TEAE: Thrombocytopenia ([1]; Total (N = 91)): 2 (2%)
Grade 3 or greater TEAE: Vomiting ([1]; Total (N = 91)): 3 (3%)
Patients Reporting at least one Grade 3 or greater TEAE ([1]; Total (N = 91)): 53 (58%)
PD (% inhibition, H score) Skin: 4EBP1/PRAS40 ([2]; 10 mg Q5D): 80%
PD (% inhibition, H score) Skin: 4EBP1/PRAS40 ([2]; 13 mg Q5D): 80%
PD (% inhibition, H score) Skin: 4EBP1/PRAS40 ([2]; 16 mg Q3D): 80%
PD (% inhibition, H score) Skin: 4EBP1/PRAS40 ([2]; 20 mg Q3D): 80%
PD (% inhibition, H score) Skin: 4EBP1/PRAS40 ([2]; 30 mg QW): 80%
PD (% inhibition, H score) Skin: 4EBP1/PRAS40 ([2]; 40 mg QW): 80%
pathway inhibition of TORC1 (p4EBP1 and pS6) and TORC2 (pPRAS40) ([2]; skin biopsies): 60-100%
p4EBP1 levels in PBC (p4E-BP1 (T37/46)): Decreases in p4EBP1 levels were seen
